Patent US9561228B2 (Celgene Avilomics Research, Inc., priority 2013, dated 2017)

Experiments:
Erk1 = target: T1, Erk1 (Homo sapiens, UniProt P27361); experiment: Protein Mass Modification Assay (intact protein MALDI, 60 min, 10-fold excess of compound); assay type: binding
T1 construct: purchased Millipore 14-439
Protocol: Protein Mass Modification Assay
Intact protein: Erk1 from Millipore (Cat. No. 14-439) was incubated for 60 min. at room temperature with a 10-fold excess of test compound to protein. 4 μL aliquots of the resulting mixture were diluted with 15 μL of 0.2% TFA prior to micro C4 ZipTipping directly onto the MALDI target using sinapinic acid as the desorption matrix (10 mg/ml in 0.1% TFA:Acetonitrile 50:50, v/v). The centroid mass of the target protein in the control sample was compared with the centroid mass of the target protein incubated with compound. A shift in the centroid mass of the treated protein compared to the untreated protein was divided by the molecular weight of the compound. This number corresponds to the percentage of modified protein after one hour incubation. Results from this assay are reported in Table A under the column “ERK1 Mass Mod (%).”

[1] = system: ERK1/2 phosphorylation of p90RSK in HT29 cells; experiment: pRSK MSD Assay in HT29 cells; assay type: cell-based; conditions: Homo sapiens, HT-29, read-out: ERK1/ERK2 PRSK MSD HT29 EC50
In short: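 Serum-starved HT29 cells (0.1% FBS overnight) treated with test compound for 120 min at 37° C, then lysed with protease and phosphatase inhibitors. Phospho-p90RSK quantified by MSD sandwich immunoassay: RSK capture antibody, phospho-RSK detection antibody plus Sulfo-tagged antibody, electrochemiluminescence read.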

[2] = system: ERK1/2 phosphorylation of p90RSK in A375 cells; experiment: Detection of total and phosphor-RSK by MSD ELISA (A375); assay type: cell-based; conditions: Homo sapiens, A-375, read-out: ERK1/ERK2 PRSK A375 EC50
In short: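 A375 cells serum-starved overnight in DMEM/0.1% FBS, then treated 2 h at 37° C with compound (1000× DMSO dilutions into medium). Lysates captured on RSK antibody-coated MSD plates; phospho-RSK (Ser380) and total RSK detected with SulfoTag secondary antibodies by electrochemiluminescence.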

[3] = system: ERK1/2 phosphorylation of p90RSK in HCT116 cells; experiment: Detection of total and phospho-RSK by MSD ELISA (HCT116); assay type: cell-based; conditions: Homo sapiens, HCT-116, read-out: ERK1/ERK2 PRSK HCT116 EC50
Protocol: Detection of Total and Phospho-RSK by MSD ELISA (HCT116)
The protocol below describes an assay to measure the kinase activity of ERK1/2 to phosphorylate a substrate, p90RSK, in the presence or absence of a test compound.
HCT116 cells were grown in RPMI/10% FBS. Prior to the assay, 50,000 cells per well were plated in a 96 well flat bottom plate. Cells were cultured overnight in an incubator at 37° C.
Compound stocks were 10 mM in DMSO. A 1000× dilution was made in DMSO. 1 uL of the DMSO solution was transferred to 1 ml RPMI/10% FBS in a deep well plate. Media in the cell plate was discarded, and 100 uL of the compound-containing media was added. The preparation was incubated at 37° C. for 2 hrs.
Preparation of cell lysates are described below.
pRSK or total RSK MSD Assay
MSD plates: Blank MSD plates were coated with 30 uL capture antibody (BD 610226) at a final concentration of 1 ug/mL in PBS. Both pRSK and total RSK MSD assays used the same capture antibody at the same concentration. Antibody stock concentration was 250 ug/mL. Once antibody solution was added to MSD plate, the sides were tapped to be certain it was coated completely (visual inspection). It was then covered and placed at 4° C. overnight on a level surface.
Block MSD Plate: The coating antibody was removed and the plate was washed on a plate washer in MSD wash buffer. The last bit of wash solution was tapped out and 150 uL/well 3% BSA (MSD Blocker A) in MSD wash buffer was added. The preparation was placed on a shaker at room temperature for at least an hour.
Add samples: Media was removed from compound-treated cells and replaced with 55 uL/well MSD cell lysis buffer containing protease and phosphotase I & II inhibitors. The preparations was incubate on a shaker in a cold room for 30-45 min. The blocked MSD plate was washed on a plate washer, and the last bit of wash solution was tapped out. Next was added 50 uL (of the 55 uL) cell lysate in a well-well transfer. The preparation was covered and incubated on shaker at room temp for 2 hours. The lysate was then removed and washed on plate washer 3 times. The last bit of wash buffer was then tapped out and replaced with 25 uL/well detection antibody (described below).
For pRSK detection, a pRSK antibody stock of 21 ug/mL was prepared as follows: 1 ug/mL pRSK Ser380 antibody (Cell Signaling Technology, Cat. #9335)+1:750 anti-rabbit SulfoTag (from MSD, R32AB-1) in 1% BSA in MSD wash buffer.
For total RSK detection, a total RSK antibody stock of 200 ug/mL was prepared as follows: 1 ug/mL total RSK (Santa Cruz sc-231G) antibody+1:750 anti-goat SulfoTag (from MSD, R32AG-1) in 1% BSA in MSD wash buffer.
The plate was incubated for 1 hr at room temperature on a shaker, followed by three washes. The last bit of wash buffer was tapped out. Next, 150 uL/well 1×MSD Read buffer was added and the plate was analyzed by the MSD reader.

[4] = system: HT-29 cells (colorectal adenocarcinoma); experiment: Inhibition of cancer cell proliferation, HT-29 (CellTiterGlo, 72 hours); assay type: cell-based; conditions: Homo sapiens
In short: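 HT-29 cells seeded at 3000/well, then treated with 3-fold serial dilutions from a 5,000 nM two-fold solution in serum-free RPMI1640, untreated wells as control, for 72 h at 37° C. CellTiterGlo luminescence converted to cell number via a standard curve; GI50 from percent inhibition versus untreated growth.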

[5] = system: A375 cells (malignant melanoma); experiment: Inhibition of cancer cell proliferation, A375 (CellTiterGlo, 72 hours); assay type: cell-based; conditions: Homo sapiens, A-375
Protocol: Measurement of Inhibition of Cancer Cell Proliferation (A375/Malignant Melanoma)
(§1) The following protocol used an A375 cell line, which cell line is a model for malignant melanoma. A375 cells were split and 3000 cells in 100 n1 of growth medium were added per well of a flat-bottom 96-well plate. A two-fold test compound solution in serum-free DMEM was made, starting at 5,000 nM. Then, 3-fold serial dilutions were made across the plate from well 1 to well 11. Well 12, the last well in a row on the plate, was left as untreated control. 100 μl compound solutions were then transferred to the wells, so the total volume of media was 200 μl per well. Plates were returned to a 37° C. incubator, and the cells were cultured for 72 hours. To measure cell proliferation after 72 hours, media was discarded from the plates, 50 μl/well of fresh medium was added, and 50 μl CellTiterGlo solution was added (Promega Cat#G7573). The plate was covered with a dark lid and incubated for 10 min. A white sealing tape was applied to the bottom of the plate, and the plate was read in a luminescence plate reader. […] 50 μl CellTiterGlo was added per well, and the plate was read in a luminescence plate reader after 10 min. The reading was plotted vs. cell number to generate a standard curve and the equation of the curve fit. The compound-treated sample luminescence readings were converted to cell numbers using the curve-fit equation. The percent of inhibition, using untreated control as 100% growth, was then calculated. GI50 was then calculated by GraphPad Prism.

[6] = system: HCT116 cells (colorectal carcinoma); experiment: Inhibition of cancer cell proliferation, HCT116 (CellTiterGlo, 72 hours); assay type: cell-based; conditions: Homo sapiens, HCT-116
Protocol: Measurement of Inhibition of Cancer Cell Proliferation (HCT116/Colorectal Carcinoma)
as §1, with “a HCT116” for “an A375”, “colorectal carcinoma. HCT116” for “malignant melanoma. A375”, “μl” for “n1”, “RPM1640” for “DMEM”

T1 sequence (P27361 whole entry): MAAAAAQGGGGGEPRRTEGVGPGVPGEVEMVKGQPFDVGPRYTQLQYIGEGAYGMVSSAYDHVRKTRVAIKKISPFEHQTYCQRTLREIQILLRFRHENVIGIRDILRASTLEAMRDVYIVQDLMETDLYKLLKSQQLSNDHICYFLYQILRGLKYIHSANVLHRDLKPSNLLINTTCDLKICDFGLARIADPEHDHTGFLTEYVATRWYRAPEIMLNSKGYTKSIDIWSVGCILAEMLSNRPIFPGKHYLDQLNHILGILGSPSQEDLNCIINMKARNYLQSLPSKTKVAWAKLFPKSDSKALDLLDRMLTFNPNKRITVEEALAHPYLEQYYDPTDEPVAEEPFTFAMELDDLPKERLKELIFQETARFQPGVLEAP

SMILES | ERK1 Mass Mod (%) (Erk1) | EC50 [1] | EC50 [2] | EC50 [3] | GI50 [4] | GI50 [5] | GI50 [6]
C=CC(=O)Nc1cc(C)ccc1Nc1nc(Nc2cc(O)ncc2C)ncc1C(F)(F)F [Compound I-365, N-(2-((2-((2-hydroxy-5-methylpyridin-4-yl)amino)-5-(trifluoromethyl)pyrimidin-4-yl)amino)-5-methylphenyl)acrylamide] | E (a mass modification of ≧70%) | > 1000 nM | > 1000 nM | > 1000 nM | – | – | –
C=CC(=O)Nc1cc(C)ccc1Nc1nc(Nc2nc(O)ncc2Cl)ncc1C(F)(F)F [Compound I-363, N-(2-((2-((5-chloro-2-hydroxypyrimidin-4-yl)amino)-5-(trifluoromethyl)pyrimidin-4-yl)amino)-5-methylphenyl)acrylamide] | E (a mass modification of ≧70%) | > 1000 nM | > 1000 nM | > 1000 nM | – | – | –
COc1cc(Nc2ncc(C(F)(F)F)c(Nc3ccc(C)cc3N)n2)c(C)cn1 [Compound I-353, N^4-(2-amino-4-methylphenyl)-N^2-(2-methoxy-5-methylpyridin-4-yl)-5-(trifluoromethyl)pyrimidine-2,4-diamine] | G (a mass modification ≦30%) | – | > 1000 nM | > 1000 nM | – | – | –
C=CC(=O)Nc1cc(C)ccc1Nc1nc(N[C@H]2CCCN(C(=O)CF)C2)ncc1C(F)(F)F [Compound I-43, (S)—N-(2-((2-((1-(2-Fluoroacetyl)piperidin-3-yl)amino)-5-(trifluoromethyl)pyrimidin-4-yl)amino)-5-methylphenyl)acrylamide] | E (a mass modification of ≧70%) | – | – | – | – | < 100 nM | –
C=CC(=O)Nc1cc(C(=O)N2CCN(C(=O)CO)CC2)ccc1Nc1nc(Nc2cc(OC)ncc2C)ncc1C(F)(F)F [Compound I-402, N-(5-(4-(2-hydroxyacetyl)piperazine-1-carbonyl)-2-((2-((2-methoxy-5-methylpyridin-4-yl)amino)-5-(trifluoromethyl)pyrimidin-4-yl)amino)phenyl)acrylamide] | E (a mass modification of ≧70%) | 501 to 999 nM | 501 to 999 nM | 101 to 500 nM | – | – | –
C=CC(=O)Nc1ccccc1Nc1nc(N[C@H]2CCC[C@@H](C(N)=O)C2)ncc1Cl [Compound I-120, (1R,3S)-3-((4-((2-acrylamidophenyl)amino)-5-chloropyrimidin-2-yl)amino)cyclohexanecarboxamide] | E (a mass modification of ≧70%) | < 100 nM | – | – | < 100 nM | 101 to 500 nM | –
C=CC(=O)Nc1cc(OCC(=O)N2CCN(c3ncccn3)CC2)ccc1Nc1nc(Nc2cc(OC)ncc2C)ncc1C(F)(F)F [Compound I-403, N-(2-((2-((2-methoxy-5-methylpyridin-4-yl)amino)-5-(trifluoromethyl)pyrimidin-4-yl)amino)-5-(2-oxo-2-(4-(pyrimidin-2-yl)piperazin-1-yl)ethoxy)phenyl)acrylamide] | E (a mass modification of ≧70%) | < 100 nM | 101 to 500 nM | 101 to 500 nM | – | – | –

Now from value to molecule:

ERK1 Mass Mod (%) (Erk1) | EC50 [1] | EC50 [2] | EC50 [3] | GI50 [4] | GI50 [5] | GI50 [6] | SMILES
E (a mass modification of ≧70%) | < 100 nM | – | – | 101 to 500 nM | 101 to 500 nM | – | C=CC(=O)Nc1ccccc1Nc1nc(N[C@H]2CCC[C@@H](C(N)=O)C2)ncc1C(F)(F)F [Compound I-118, (1R,3S)-3-((4-((2-acrylamidophenyl)amino)-5-(trifluoromethyl)pyrimidin-2-yl)amino)cyclohexanecarboxamide]
G (a mass modification ≦30%) | 101 to 500 nM | 501 to 999 nM | 501 to 999 nM | – | – | – | C=CC(=O)Nc1cc(C)ccc1Nc1nc(Nc2cc(OC)ncn2)ncc1C(F)(F)F [Compound I-348, N-(2-((2-((6-methoxypyrimidin-4-yl)amino)-5-(trffluoromethyl)pyrimidin-4-yl)amino)-5-methylphenyl)acrylamide]
– | – | – | – | 501 to 999 nM | 501 to 999 nM | > 1000 nM | C=CC(=O)Nc1cc(Cl)ccc1Nc1nc(Nc2cc(OC)ncc2C)ncc1Cl [Compound I-248, N-(5-chloro-2-((5-chloro-2-((2-methoxy-5-methylpyridin-4-yl)amino)pyrimidin-4-yl)amino)phenyl)acrylamide]
